Measured values published in US20230000081A1, “SYNERGISTIC PESTICIDAL COMPOSITIONS FOR DELIVERY OF PESTICIDAL ACTIVE INGREDIENTS AND METHODS THEREFOR” (0903608 B.C. Ltd., priority 2018, published 2023).
Where “and” joins values, the source holds several entries; their conditions need not be identical. Equal values may be shown once. Values belong to the compound of their own block, whether it stands above or below them.

Legend:
Test in all cases: Synergistic Growth Inhibition Assay (MIC, FIC index; 96-well microtiter plate, resazurin dye)
Format in all cases: cell-based
Alternaria solani = settings: 7 days incubation; for MIC (A): Compound A alone
Description: In some embodiments, the synergistic action between the pesticidal active ingredient, and the at least one C4-C10 (or alternatively C11 or C12) saturated or unsaturated aliphatic acid components of the pesticidal compositions according to embodiments of the present disclosure was tested using a Synergistic Growth Inhibition Assay, which is derived from and related to a checkerboard assay as is known in the art for testing of combinations of antimicrobial agents. In the Synergistic Growth Inhibition Assay used in accordance with some embodiments of the present disclosure, multiple dilutions of combinations of pesticidal active ingredient and at least one C4-C10 saturated or unsaturated aliphatic acid agents are tested in individual cells for inhibitory activity against a target pest or pathogenic organism. In one such embodiment, the combinations of pesticidal active ingredient and C4-C10 (or alternatively C11 or C12) saturated or unsaturated aliphatic acid agents may preferably be tested in decreasing concentrations. In a further such embodiment, the combinations of pesticidal active ingredient and C4-C10 (or alternatively C11 or C12) saturated or unsaturated aliphatic acid agents may be tested in increasing concentrations. These multiple combinations of the pesticidal active ingredient and at least one C4-C10 (or alternatively C11 or C12) saturated or unsaturated aliphatic acid agents may be prepared in 96-well microtiter plates. […] Thus, each well of the microtiter plate is a unique combination of the two agents, at which inhibitory efficacy of the combination against the target pest or pathogen can be determined.
In one embodiment according to the present disclosure, for each row of microtiter cells in the Synergistic Growth Inhibition Assay, the FIC index is calculated from the lowest concentration of the pesticidal active ingredient and one or more C4-C10 saturated or unsaturated aliphatic acid agents necessary to inhibit growth of a target pest or pathogen. […] The FIC index is calculated for each row as follows: […]

Fusarium oxysporum = settings: for MIC (A): Compound A alone
Description: (§1) In some embodiments, the synergistic action between the pesticidal active ingredient, and the at least one C4-C10 (or alternatively C11 or C12) saturated or unsaturated aliphatic acid components of the pesticidal compositions according to embodiments of the present disclosure was tested using a Synergistic Growth Inhibition Assay, which is derived from and related to a checkerboard assay as is known in the art for testing of combinations of antimicrobial agents. In the Synergistic Growth Inhibition Assay used in accordance with some embodiments of the present disclosure, multiple dilutions of combinations of pesticidal active ingredient and at least one C4-C10 saturated or unsaturated aliphatic acid agents are tested in individual cells for inhibitory activity against a target pest or pathogenic organism. In one such embodiment, the combinations of pesticidal active ingredient and C4-C10 (or alternatively C11 or C12) saturated or unsaturated aliphatic acid agents may preferably be tested in decreasing concentrations. In a further such embodiment, the combinations of pesticidal active ingredient and C4-C10 (or alternatively C11 or C12) saturated or unsaturated aliphatic acid agents may be tested in increasing concentrations. These multiple combinations of the pesticidal active ingredient and at least one C4-C10 (or alternatively C11 or C12) saturated or unsaturated aliphatic acid agents may be prepared in 96-well microtiter plates. In one such embodiment, the Synergistic Growth Inhibition Assay then comprises rows which each contain progressively decreasing concentrations of the pesticidal active ingredient and one or more C4-C10 (or alternatively C11 or C12) saturated or unsaturated aliphatic acid agents to test for the MIC of the agents in combination at which growth of the target pest or pathogen is inhibited. Thus, each well of the microtiter plate is a unique combination of the two agents, at which inhibitory efficacy of the combination against the target pest or pathogen can be determined.
(§2) In one embodiment according to the present disclosure, for each row of microtiter cells in the Synergistic Growth Inhibition Assay, the FIC index is calculated from the lowest concentration of the pesticidal active ingredient and one or more C4-C10 saturated or unsaturated aliphatic acid agents necessary to inhibit growth of a target pest or pathogen. The FIC of each component is derived by dividing the concentration of the agent present in that well of the microtiter plate by the minimal inhibitory concentration (MIC) needed of that agent alone to inhibit growth of the target pest or pathogen. The FIC index is then the sum of these values for both agents in that well of the microtiter plate. The FIC index is calculated for each row as follows:
(§3) FICindex=MICa/MICA+MICb/MICB
(§4) Fractional inhibitory concentration indices may then used as measure of synergy. […] When the FIC index is equal to 1, the combination is additive.
Then, serial dilutions of these initial compositions in successive wells in the row of the microtiter plate were used to assay the pesticidal composition under the same conditions to determine the concentration of the composition combining the two agents corresponding to the microtiter well in which growth inhibition of the target pest or organism ceases. […]

Botrytis cinerea = settings: for MIC (A): Compound A alone
Description: as §1, §2, §3, §4
(§5) Then, serial dilutions of these initial compositions in successive wells in the row of the microtiter plate were used to assay the pesticidal composition under the same conditions to determine the concentration of the composition combining the two agents corresponding to the microtiter well in which growth inhibition of the target pest or organism ceases.
Similarly to as described above, Resazurin was used as an indicator of growth or inhibition of growth of Botrytis cinerea in the exemplary Synergistic Growth Inhibition Assay. In addition to the color change of the resazurin, an optical or visual examination of the microtiter well may also be made to additionally determine the presence of growth or inhibition of growth of the Botrytis cinerea.

Sclerotinia sclerotiorum = settings: for MIC (A): Compound A alone
Description: as §1, §2, §3, §4, §5
Similarly to as described above, Resazurin was used as an indicator of growth or inhibition of growth of Sclerotinia sclerotiorum in the exemplary Synergistic Growth Inhibition Assay. […]

[1] = Compound B alone, 48 hours incubation
[2] = Compound B (aliphatic acid) alone, Botrytis cinerea, 48 hours incubation
[3] = Fusarium oxysporum, incubation period of 48 hours
[4] = Sclerotinia sclerotiorum, 7 days incubation
[5] = Botrytis cinerea, 48 hours incubation

MIC (B) (Alternaria solani; Compound B (aliphatic acid) alone): 2500 µg/mL
Compound: CCC(O)C(=O)O (stereo not drawn) [2-Hydroxybutyric acid]

MIC (B) (Fusarium oxysporum; [1]): 10000 µg/mL
MIC (B) (Botrytis cinerea; [2]): 10000 µg/mL
Compound: CC(O)CC(=O)O (stereo not drawn) [3-Hydroxybutyric acid, 3-hydroxybutyric acid]

MIC (B) (Botrytis cinerea; [2]): 125 µg/mL
Compound: CCCCCCCC(O)CC(=O)O (stereo not drawn) [3-Hydroxydecanoic acid, 3-hydroxydecanoic acid]

MIC (B) (Botrytis cinerea; [2]): 2500 µg/mL
Compound: CCCC(O)CC(=O)O (stereo not drawn) [3-Hydroxyhexanoic acid, 3-hydroxyhexanoic acid]

Compound: O=C(O)CCCCCCCO [8-Hydroxyoctanoic acid]
MIC (B) (Botrytis cinerea; [2]): 2500 µg/mL

Compound: O=C(O)CCCCCCCCCCCO [12-Hydroxydodecanoic acid]
MIC (B) (Botrytis cinerea; [2]): 100 µg/mL and 50 µg/mL

Compound: CCCCCCCC/C=C\CCCCCCCC(=O)O [(9Z)-octadecenoic acid]
MIC (B) (Sclerotinia sclerotiorum; Compound B alone, Sclerotinia sclerotiorum, 7 days incubation): 5000 µg/mL
MIC (B) (Botrytis cinerea; Compound B alone, Botrytis cinerea, incubation period of 48 hours): 5000 µg/mL

Compound: CO/C=C(/C(=O)OC)c1ccccc1Oc1cc(Oc2ccccc2C#N)ncn1 [Azoxystrobin, azoxystrobin, reference compound]
MIC (A) (Fusarium oxysporum; Fusarium oxysporum, 48 hours incubation): 150 µg/mL
MIC (A) (Fusarium oxysporum; [3]): 150 µg/mL
MIC (A) (Sclerotinia sclerotiorum; 7 days incubation): 75 µg/mL
MIC (A) (Sclerotinia sclerotiorum; [4]): 150 µg/mL
MIC (A) (Sclerotinia sclerotiorum; Sclerotinia sclerotiorum, incubation period of 7 days): 150 µg/mL
MIC (A) (Botrytis cinerea; Botrytis cinerea, incubation period of 2 days): 150 µg/mL
MIC (A) (Botrytis cinerea; Botrytis cinerea, incubation period of 48 hours): 75 µg/mL and 150 µg/mL

Compound: N#Cc1c[nH]cc1-c1cccc2c1OC(F)(F)O2 [Fludioxonil, fludioxonil]
MIC (A) (Fusarium oxysporum; 24 hour incubation): 0.24063 µg/mL

Compound: CCCCCC(=O)O [Hexanoic acid]
MIC (B) (Botrytis cinerea; [1]): 156.2 µg/mL

Compound: Cc1cc(C(F)(F)F)nn1CC(=O)N1CCC(c2nc(C3=NOC(c4c(F)cccc4F)C3)cs2)CC1 (stereo not drawn) [Oxathiapiprolin]
MIC (A) (Botrytis cinerea; [5]): 500 µg/mL

Compound: CO/C=C(/C(=O)OC)c1ccccc1COc1cccc(C(F)(F)F)n1 [Picoxystrobin]
MIC (A) (Sclerotinia sclerotiorum; [4]): 500 µg/mL
MIC (A) (Alternaria solani): 500 µg/mL
MIC (A) (Botrytis cinerea; [5]): 250 µg/mL

Compound: CC(C)(C)C(O)(CCc1ccc(Cl)cc1)Cn1cncn1 (stereo not drawn) [Tebuconazole]
MIC (A) (Fusarium oxysporum; [3]): 225 µg/mL

Compound: Mancozeb
MIC (A) (Alternaria solani): 500 µg/mL
